Activity calls are given as the source filed them. No cut-off for these calls is given here.
What was measured:
[1] = biological target: T1, Protein deacetylase HDAC6 (Homo sapiens, UniProt Q9UBN7); experiment: Inhibition of human recombinant HDAC6 expressed in baculovirus infected insect High5 cells using Boc-Lys(epsilon-acetyl)-AMC as substrate by fluorescence assay
T1 sequence (Q9UBN7 whole entry): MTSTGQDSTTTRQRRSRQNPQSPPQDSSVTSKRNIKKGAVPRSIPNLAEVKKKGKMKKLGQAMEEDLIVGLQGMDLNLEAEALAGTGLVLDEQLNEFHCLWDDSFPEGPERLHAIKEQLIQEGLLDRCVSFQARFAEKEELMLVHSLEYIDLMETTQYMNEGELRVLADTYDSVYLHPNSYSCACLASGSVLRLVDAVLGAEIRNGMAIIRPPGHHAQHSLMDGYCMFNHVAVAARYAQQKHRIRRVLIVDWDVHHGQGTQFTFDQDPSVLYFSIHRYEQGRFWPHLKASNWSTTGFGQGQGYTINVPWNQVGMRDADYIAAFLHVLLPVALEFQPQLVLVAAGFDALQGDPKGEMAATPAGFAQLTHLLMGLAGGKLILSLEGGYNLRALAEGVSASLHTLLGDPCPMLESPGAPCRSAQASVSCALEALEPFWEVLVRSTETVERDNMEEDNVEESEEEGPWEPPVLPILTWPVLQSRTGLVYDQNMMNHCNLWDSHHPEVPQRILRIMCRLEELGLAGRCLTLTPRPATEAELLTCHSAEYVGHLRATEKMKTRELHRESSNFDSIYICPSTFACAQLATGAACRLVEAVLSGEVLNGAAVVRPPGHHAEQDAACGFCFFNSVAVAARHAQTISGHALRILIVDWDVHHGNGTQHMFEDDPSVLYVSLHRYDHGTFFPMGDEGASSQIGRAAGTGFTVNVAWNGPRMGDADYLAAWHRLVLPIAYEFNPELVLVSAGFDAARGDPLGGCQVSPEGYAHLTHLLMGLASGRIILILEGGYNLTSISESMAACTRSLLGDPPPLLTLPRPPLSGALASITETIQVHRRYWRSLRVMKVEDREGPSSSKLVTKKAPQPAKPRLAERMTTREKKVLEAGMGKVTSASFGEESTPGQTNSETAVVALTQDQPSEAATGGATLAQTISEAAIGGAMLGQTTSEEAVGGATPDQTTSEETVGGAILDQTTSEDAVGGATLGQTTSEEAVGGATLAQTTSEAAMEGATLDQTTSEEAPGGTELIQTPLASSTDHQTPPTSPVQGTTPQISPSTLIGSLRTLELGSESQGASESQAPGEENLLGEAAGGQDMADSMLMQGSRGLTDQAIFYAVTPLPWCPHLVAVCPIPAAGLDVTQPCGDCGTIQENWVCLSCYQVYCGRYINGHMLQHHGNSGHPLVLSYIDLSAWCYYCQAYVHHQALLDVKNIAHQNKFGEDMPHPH

HCT-116 = experiment: Cytotoxicity against human HCT116 cells after 24 hrs by MTT assay; assay type: functional, cell-based; settings: HCT-116, 24 h
Histone deacetylase 1 [2] = biological target: T2, Histone deacetylase 1 (Homo sapiens, UniProt Q13547); experiment: Inhibition of human recombinant HDAC1 expressed in baculovirus infected insect High5 cells using Ac-Lys-Tyr-Lys(epsilon-acetyl)-AMC as substrate at 20 ug/ml by fluorescence assay
Histone deacetylase 3 [3] = biological target: T3, Histone deacetylase 3 (Homo sapiens, UniProt O15379); experiment: Inhibition of human recombinant HDAC3 expressed in baculovirus infected insect High5 cells using Ac-Lys-Tyr-Lys(epsilon-acetyl)-AMC as substrate at 20 ug/ml by fluorescence assay
[4] = biological target: T4, Protein deacetylase HDAC6 (Homo sapiens) (UniProt Q9UBN7); experiment: Inhibition of human recombinant HDAC6 expressed in baculovirus infected insect High5 cells using Boc-Lys(epsilon-acetyl)-AMC as substrate at 20 ug/ml by fluorescence assay
T4 sequence (whole entry): T1 sequence (Q9UBN7 whole entry)

Histone deacetylase 1 [5] = biological target: T2, Histone deacetylase 1; experiment: Inhibition of human recombinant HDAC1 expressed in baculovirus infected insect High5 cells using Ac-Lys-Tyr-Lys(epsilon-acetyl)-AMC as substrate by fluorescence assay
Histone deacetylase 3 [6] = biological target: T3, Histone deacetylase 3; experiment: Inhibition of human recombinant HDAC3 expressed in baculovirus infected insect High5 cells using Ac-Lys-Tyr-Lys(epsilon-acetyl)-AMC as substrate by fluorescence assay

T3 sequence (O15379 whole entry): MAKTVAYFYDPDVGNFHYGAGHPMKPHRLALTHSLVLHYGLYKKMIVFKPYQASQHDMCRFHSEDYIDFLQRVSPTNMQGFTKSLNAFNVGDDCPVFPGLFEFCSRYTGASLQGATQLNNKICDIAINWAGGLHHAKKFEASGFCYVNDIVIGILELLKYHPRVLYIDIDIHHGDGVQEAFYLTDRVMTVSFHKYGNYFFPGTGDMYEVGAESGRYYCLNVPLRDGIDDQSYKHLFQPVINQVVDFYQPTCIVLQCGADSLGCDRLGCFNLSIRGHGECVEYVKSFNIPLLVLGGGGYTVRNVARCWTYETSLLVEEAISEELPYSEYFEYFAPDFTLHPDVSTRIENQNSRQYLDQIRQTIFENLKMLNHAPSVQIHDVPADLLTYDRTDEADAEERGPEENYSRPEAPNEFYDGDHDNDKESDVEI
T2 sequence (Q13547 whole entry): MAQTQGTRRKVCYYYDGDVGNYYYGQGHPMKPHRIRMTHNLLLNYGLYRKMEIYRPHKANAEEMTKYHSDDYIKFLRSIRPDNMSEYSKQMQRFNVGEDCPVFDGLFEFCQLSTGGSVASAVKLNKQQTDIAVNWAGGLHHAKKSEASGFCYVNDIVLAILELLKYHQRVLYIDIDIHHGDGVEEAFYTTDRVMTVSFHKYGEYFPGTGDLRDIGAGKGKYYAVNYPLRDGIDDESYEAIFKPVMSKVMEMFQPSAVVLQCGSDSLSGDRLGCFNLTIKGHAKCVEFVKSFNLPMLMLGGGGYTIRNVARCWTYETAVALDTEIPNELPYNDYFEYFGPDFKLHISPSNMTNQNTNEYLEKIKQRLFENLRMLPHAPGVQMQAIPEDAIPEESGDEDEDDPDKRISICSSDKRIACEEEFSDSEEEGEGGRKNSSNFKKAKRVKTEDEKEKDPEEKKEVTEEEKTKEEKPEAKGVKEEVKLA

SMILES	IC50 [1]	inhibition (Histone deacetylase 1 [2])	inhibition (Histone deacetylase 3 [3])	inhibition [4]	IC50 (Histone deacetylase 1 [5])	IC50 (Histone deacetylase 3 [6])	IC50 (HCT-116)
O=C(/C=C/C=C/c1ccc2c(c1)OCO2)NO	30.4 µM	inactive	inactive	–	–	–	9.1 µM
O=C(O)/C=C/C=C/c1ccc2c(c1)OCO2 [PIPERIC ACID]	–	inactive	inactive	< 50%	–	–	> 20 µM
CC(C)CNC(=O)/C=C/C=C/CC/C=C/c1ccc2c(c1)OCO2 [RETROFRACTAMIDE A]	–	< 50%	< 50%	< 50%	–	–	> 20 µM
O=C(O)/C=C/C=C/CC/C=C/c1ccc2c(c1)OCO2	–	< 50%	< 50%	< 50%	–	–	> 20 µM
O=C(/C=C/C=C/CC/C=C/c1ccc2c(c1)OCO2)NO	0.73 µM	–	–	–	0.73 µM	0.76 µM	4.4 µM
CC(C)CNC(=O)/C=C/C=C/c1ccc2c(c1)OCO2 [PIPERLONGUMININE]	–	inactive	inactive	< 50%	–	–	> 20 µM

Further lines, with some results ahead:

IC50 [1]	inhibition (Histone deacetylase 1 [2])	inhibition (Histone deacetylase 3 [3])	inhibition [4]	IC50 (Histone deacetylase 1 [5])	IC50 (Histone deacetylase 3 [6])	SMILES	IC50 (HCT-116)
–	< 50%	< 50%	< 50%	–	–	O=C(O)/C=C/C=C/CCCCc1ccc2c(c1)OCO2	> 20 µM
2.25 µM	–	–	–	1.61 µM	1.52 µM	O=C(/C=C/C=C/CCCCc1ccc2c(c1)OCO2)NO	3.5 µM
